Test results published in paper PMC4322365, “A Ligand-observed Mass Spectrometry Approach Integrated into the Fragment Based Lead Discovery Pipeline” (Scientific Reports, 2015).
Several values for one entry are separate records, joined by “and”; a condition that tells them apart may be missing. Equal entries are not always repeated. Where two headings read alike, the source gives them in different places.

What was measured:
Format in all cases: binding
NS5B [1] = molecular target: T1, NS5B (Hepatitis C virus genotype 1b, UniProt P26663); assay: SPR analysis (Biacore T200, immobilized NS5B); details: for SPR Corr. response (RU): corrected response above 5 RU indicates positive binding; for SPR binding: threshold 5 RU
T1 construct: NS5B with a C-terminal 10-His tag was expressed in E. coli; 10-His (C); made in house; host or cells: E. coli
T1 sequence (P26663 2420-3010): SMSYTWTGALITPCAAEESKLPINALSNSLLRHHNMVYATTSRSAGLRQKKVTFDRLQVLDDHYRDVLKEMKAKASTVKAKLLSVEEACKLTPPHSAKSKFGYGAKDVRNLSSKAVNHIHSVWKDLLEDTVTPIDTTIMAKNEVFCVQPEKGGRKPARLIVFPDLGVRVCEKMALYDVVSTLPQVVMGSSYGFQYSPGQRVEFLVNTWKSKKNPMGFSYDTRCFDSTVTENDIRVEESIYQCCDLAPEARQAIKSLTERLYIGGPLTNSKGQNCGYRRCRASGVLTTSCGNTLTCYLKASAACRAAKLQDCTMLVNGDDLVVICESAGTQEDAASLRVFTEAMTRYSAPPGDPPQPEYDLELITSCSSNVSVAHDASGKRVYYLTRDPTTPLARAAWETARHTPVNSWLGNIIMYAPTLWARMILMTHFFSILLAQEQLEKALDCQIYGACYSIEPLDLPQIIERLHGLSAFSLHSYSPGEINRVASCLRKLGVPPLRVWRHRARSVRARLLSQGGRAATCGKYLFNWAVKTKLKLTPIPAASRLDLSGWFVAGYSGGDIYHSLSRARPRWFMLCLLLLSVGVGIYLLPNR
Protocol: In order to determine the dissociation constant of each fragment ligand, we prepared calibration curves for the MS responses of ten fragments in a mixture (Figure S1) and measured the recovery rate of each fragment (Table S3), which were used to derive the actual concentrations of fragments bound to the target. Kd values were then calculated based on the measured concentrations of fragment ligands dissociated from the target (Table S3). […] Ligand efficiency (LE) values were then derived from Kd's as a measure to justify which fragments to further optimize and elaborate in the FBLD pipeline[46][47] (Figure 2A). To examine the accuracy of Kd measurement using this new approach, we first attempted to utilize ITC for binding affinity assessment. […] SPR was then implemented for Kd determination for these fragment hits. […] However, using the single point measurement method, we were still able to estimate Kd's for these fragment-target interactions to be all within the millimolar range and rank the order of their binding affinity according to corrected responses (Figure 2B). […] The overall consistency of affinity ranking and estimation between the two independent assays implied our new approach enabled reliable assessment of binding affinity, especially valuable for characterizing low-affinity fragments not amenable to conventional biophysical approaches.
The SPR experiment was performed on a Biacore T200 optical biosensor (Biacore Life Sciences, GE Healthcare). Series S sensor chips CM5, NHS, EDC, ethanolamine HCl as well as sampling vials and caps were all obtained from Biacore. A solution of 1 × PBS with 5% DMSO was used as running buffer. NS5B protein at 50 μg/ml prepared in buffer of 10 mM sodium acetate (pH 5.5) was injected for immobilization which reached a level of 8000 RU. During each binding cycle, the fragment solution was injected for 1 min at a flow rate of 30 μL/min and dissociation was monitored for 300 s. Data were collected with the biosensor instrument thermo stated to 25°C. Raw data collected on an SPR biosensor were further processed to remove systematic artifacts stemming from nonspecific binding, signal drift, and bulk refractive index changes. Solvent correction and molecular weight adjustment were also applied in this study. All data processing and analysis was performed using the Biacore T200 Evaluation Software.

HCV RNA polymerase NS5B = molecular target: T2, HCV RNA polymerase NS5B (Hepatitis C virus genotype 1b, UniProt P26663); assay: biochemical; details: for S/N in the validation assay / Binding degree (fraction of fragment ligands over total fragment in incubation): 12-hit mixture; for S/N in the validation assay: two replicates separated by a slash, S/N > 10 positive, ND: not detected by MS analysis; for MS S/N: Figure 2B, S/N factors from two independent experiments, legend says validation assay; for LE (ligand efficiency): derived from Kd at P/L 1:1 and heavy atom count; for Binding degree (fraction of fragment ligands over total fragment in incubation): P/L 2:1, 1:1, 1:2, theoretical value for about 1 mM affinity
T2 construct: NS5B with a C-terminal 10-His tag was expressed in E. coli; 10-His (C); made in house; host or cells: E. coli
T2 sequence (P26663 2420-3010): as above
Protocol: Binding degree of each fragment represented by the fraction of fragment ligands over the total amount of fragments during incubation reflects the relative order of binding strengths.
In order to determine the dissociation constant of each fragment ligand, we prepared calibration curves for the MS responses of ten fragments in a mixture (Figure S1) and measured the recovery rate of each fragment (Table S3), which were used to derive the actual concentrations of fragments bound to the target. Kd values were then calculated based on the measured concentrations of fragment ligands dissociated from the target (Table S3). […] Ligand efficiency (LE) values were then derived from Kd's as a measure to justify which fragments to further optimize and elaborate in the FBLD pipeline[46][47] (Figure 2A). […] SPR was then implemented for Kd determination for these fragment hits.
All fragments of the library were either purchased from Sigma or synthesized in our laboratory, and their structural diversity was summarized in Figure S4. The mixture was then filtered through an ultrafiltration membrane (50 KD MW cut-off) by centrifugation at 13000 g for 10 min at […]. The protein complexes bound with different fragments were washed twice with 10 mM ammonium acetate (pH 6.5) followed by centrifugation to remove the unbound fragments. The resulting solution of the complexes was transferred to a new centrifugal tube, and the ligands were dissociated from NS5B with 90% methanol in deionized water. The released ligands were then separated from the denatured protein by centrifugation at 13000 g for 10 min at 20°C. The supernatant containing the ligands was evaporated by a speed vacuum, reconstituted in 80% methanol, and analyzed by LC/MS. The protein-free control was prepared by using the binding buffer substitute for NS5B during incubation and it underwent the same process as the NS5B incubated sample. […] Each cocktail was then incubated with NS5B in the binding buffer at the same final concentration as in the primary screen. […] Ultrafiltration and complex dissociation were performed as described earlier to obtain fragment ligands. Samples were all prepared in duplicate and analyzed separately.

NS5B [2] = molecular target: T1, NS5B; assay: X-ray crystallography of fragments soaked into NS5B crystals; details: fragments soaked at 5 mM
From the text: Similar to other nucleotide polymerases, the domain distribution of apo HCV NS5B polymerase bears an anatomical resemblance to a right hand with subdomains representing the fingers, thumb and palm[50][51]. Structural and mechanistic studies of NS5B have indicated the existence of multiple allosteric binding domains including palm I, II and III pockets and thumb I and II sites targeted by reported inhibitors. To characterize the binding modes of the fragments studied, they were soaked in NS5B crystals to obtain the protein complex X-ray structures. We were able to resolve electron density corresponding to the soaked compound for five out of ten fragments (crystallographic data summary in Table S4).
Moreover, the interaction could be enhanced by a π-π conjugate between its benzene ring and Tyr448 (Figure 3A). Fragment 204 engages deep in the palm I pocket through its trifluoromethyl moiety forming a hydrogen bond with Ser368 and van der Waals interaction with Cys366. Additionally, the hydrophobic interaction with Met414 as well as the π-π conjugate to Tyr448 may also contribute to the relatively high binding affinity of this fragment (Figure 3B). Fragment 117 binds at the pocket mainly through van der Waals interactions with Met414, Cys366 and Ser368 (Figure 3C), whereas fragment 328 forms van der Waals interactions with Tyr415 and Cys366 (Figure 3D). We assume these weak interactions may result in the lower binding strengths observed for the two fragments. Fragment 162 binds NS5B in a small cavity of the thumb pocket, with its trifluoromethyl moiety extending a key hydrogen bond with Asn369 as well as making hydrophobic interactions with Ser371 and Glu481. To our knowledge, the three residues constitute a new active domain in the thumb region never disclosed before.
The final optimized NS5B crystals were grown by the hanging drop method using a well solution of 30 mg/mL protein, 20% (w/v) PEG-4000, 10% (v/v) glycerol, 5 mM DTT and 50 mM MES (pH 5.5) and diffracted to 2 Å. Fragments were soaked onto the NS5B crystals at a final concentration of 5 mM (2.38% DMSO) for 2–3 days. Diffraction data were collected at Rigaku MicorMax 007HF X-ray diffraction instrument with an R-AXIS HTC detector (Rigaku), and processed using CCP4[60]. The NS5B structure was solved by molecular replacement using NS5B (1QUV) as the search model. The fragment-bound NS5B complex structures were determined by rigid-body refinement using the apo NS5B structure as a starting model. Structure improvement proceeded with multiple rounds of manual model building in Coot, followed by refinement using CCP4. Fragment ligands were fitted into clear Fo-Fc electron density at the late stage of refinement. Images were rendered from PyMOL.

[3] = P/L = 1:1, protein 25 μM, estimated from MS-measured bound ligand concentration, read-out: Kd
[4] = P/L = 1:2, protein 25 μM, read-out: Kd
[5] = P/L = 2:1, protein 25 μM, read-out: Kd
[6] = Kd, P/L = 1:1, protein 25 μM, estimated from MS-measured bound ligand concentration

| Structure (SMILES) | SPR Corr. response (RU) (NS5B [1]) | S/N in the validation assay (HCV RNA polymerase NS5B) | MS S/N (HCV RNA polymerase NS5B) | Kd (HCV RNA polymerase NS5B; [3]) | Kd (HCV RNA polymerase NS5B; [4]) | Kd (HCV RNA polymerase NS5B; [5]) | LE (ligand efficiency) (HCV RNA polymerase NS5B) | SPR binding (NS5B [1]) | Binding site in crystal structure (NS5B [2]) | Kd (HCV RNA polymerase NS5B; [6]) | Kd (HCV RNA polymerase NS5B; Kd, P/L = 1:2, protein 25 μM) | Kd (HCV RNA polymerase NS5B; Kd, P/L = 2:1, protein 25 μM) | Binding degree (fraction of fragment ligands over total fragment in incubation) (HCV RNA polymerase NS5B) |
| --- | --- | --- | --- | --- | --- | --- | --- | --- | --- | --- | --- | --- | --- |
| Oc1ccc(SC(F)(F)F)cc1 [Fragment 237] | 10.0 RU | 212.0 and 196.0 | 29 and 36 | 5.64 ± 0.06 mM | 6.45 ± 1.67 mM | 5.19 ± 0.46 mM | 0.25 |  |  |  |  |  |  |
| N#CC(c1ccccc1)N1CCOCC1 (stereo not drawn) [Fragment 328] |  | 170.0 and 155.0 | 17 and 16 |  |  |  | 0.14 | no binding | palm I allosteric domain | 20 mM | 26.4 ± 7.92 mM | 23.5 ± 2.65 mM |  |
| O=C(O)c1ccc(C(F)(F)F)cc1 [Fragment 204] | < 5 RU and 3.2 RU | 21.0 and 23.0 | 22 and 20 | 4.04 ± 0.34 mM | 5.27 mM | 3.78 ± 0.35 mM | 0.25 | no binding | palm I allosteric domain |  |  |  |  |
| Cc1ccc2oc(=O)ccc2c1 [Fragment 117] | 24.6 RU | 111.0 and 122.0 | 34 and 40 | 9.31 ± 0.23 mM | 9.18 ± 2.75 mM | 8.96 ± 0.84 mM | 0.22 |  | palm I allosteric domain |  |  |  |  |
| Cc1nc2ccccc2nc1C [Fragment 339] | 12.2 RU | 172.0 and 223.0 | 66 and 62 |  |  |  | 0.22 |  |  | 10.2 ± 0.45 mM | 8.95 ± 2.03 mM | 11.2 ± 1.45 mM |  |
| Cc1cc(N)n(-c2ccccc2)n1 [Fragment 131] | 14.7 RU | 56.0 and 46.0 | 23 and 19 | 13.4 ± 1.98 mM | 7.29 ± 0.19 mM | 12.7 ± 2.03 mM | 0.20 |  |  |  |  |  |  |
| N#CCc1ccc(O)cc1 [Fragment 114] | 55.6 RU | 983.0 and 1198.0 | 103 and 91 |  |  |  | 0.40 |  | palm I allosteric domain | 1.01 ± 0.06 mM | 1.2 mM | 1.13 ± 0.25 mM | ~2.4% |
| Nc1ccc(C(F)(F)F)cn1 [Fragment 162] | 7.6 RU | 466.0 and 513.0 | 20 and 17 | 8.96 ± 2.49 mM | 9.53 ± 0.26 mM | 10.2 ± 1.3 mM | 0.25 |  | thumb region |  |  |  |  |
| Oc1ccc(F)c(Cl)c1 [Fragment 85] | 30.9 RU | 60.0 and 53.0 | 79 and 86 | 5.67 ± 0.34 mM | 6.8 ± 0.99 mM | 6.2 ± 0.51 mM | 0.33 |  |  |  |  |  |  |
| Cn1c(=O)cc(O)c2ccccc21 [Fragment 130] | 18.4 RU | 378.0 and 376.0 | 48 and 49 | 1.19 ± 0.08 mM | 1.37 ± 0.04 mM | 0.95 ± 0.08 mM | 0.30 |  |  |  |  |  | ~2.4% |
